The test system of assay [1] is CD8+ T cells. Briefly: In vitro immunogenicity: T-cell priming with aAPCs loaded with peptide/MHC complexes and anti-CD28 antibody, pMHC multimer readout. To be noted: for Wells positive [%]: in vitro immunogenicity of HLA class I peptides, peptide-specific multimer+ wells after aAPC priming of CD8+ T cells; for Wells (in vitro immunogenicity of HLA class I peptides): CD8+ T cells of healthy donors, three stimulation cycles, multimer staining, Table 19A. The format is cell-based, human. On the procedure:
In an aspect, the peptides are pre-screened for immunogenicity before being included in the warehouse. By way of example, and not limitation, the immunogenicity of the peptides included in the warehouse is determined by a method comprising in vitro T-cell priming through repeated stimulations of CD8+ T cells from healthy donors with artificial antigen presenting cells loaded with peptide/MHC complexes and anti-CD28 antibody.
In order to obtain information regarding the immunogenicity of the TUMAPs of the present invention, the inventors performed investigations using an in vitro T-cell priming assay based on repeated stimulations of CD8+ T cells with artificial antigen presenting cells (aAPCs) loaded with peptide/MHC complexes and anti-CD28 antibody.
In order to perform in vitro stimulations by artificial antigen presenting cells loaded with peptide-MHC complex (pMHC) and anti-CD28 antibody, the inventors first isolated CD8+ T cells from fresh HLA-A*02 leukapheresis products via positive selection using CD8 microbeads (Miltenyi Biotec, Bergisch-Gladbach, Germany) of healthy donors obtained from the University clinics Mannheim, Germany, after informed consent.
PBMCs and isolated CD8+ lymphocytes were incubated in T-cell medium (TCM) until use consisting of RPMI-Glutamax (Invitrogen, Karlsruhe, Germany) supplemented with 10% heat inactivated human AB serum (PAN-Biotech, Aidenbach, Germany), 100 U/ml Penicillin/100 μg/ml Streptomycin (Cambrex, Cologne, Germany), 1 mM sodium pyruvate (CC Pro, Oberdorla, Germany), 20 μg/ml Gentamycin (Cambrex). 2.5 ng/ml IL7 (PromoCell, Heidelberg, Germany) and 10 U/ml IL-2 (Novartis Pharma, Nurnberg, Germany) were also added to the TCM at this step.
Generation of pMHC/anti-CD28 coated beads, T-cell stimulations and readout was performed in a highly defined in vitro system using four different pMHC molecules per stimulation condition and 8 different pMHC molecules per readout condition.
The purified co-stimulatory mouse IgG2a anti human CD28 Ab 9.3 (Jung et al., 1987) was chemically biotinylated using Sulfo-N-hydroxysuccinimidobiotin as recommended by the manufacturer (Perbio, Bonn, Germany). Beads used were 5.6 μm diameter streptavidin coated polystyrene particles (Bangs Laboratories, Illinois, USA).
pMHC used for positive and negative control stimulations were A*0201/MLA-001 (peptide […] (SEQ ID NO. 303) from modified Melan-A/MART-1) and A*0201/DDX5-001 ([…] from DDX5, SEQ ID NO. 304), respectively.
800.000 beads/200 μl were coated in 96-well plates in the presence of 4×12.5 ng different biotin-pMHC, washed and 600 ng biotin anti-CD28 were added subsequently in a volume of 200 μl. Stimulations were initiated in 96-well plates by co-incubating […] CD8+ T cells with 2×10^5 washed coated beads in 200 μl TCM supplemented with 5 ng/ml IL-12 (PromoCell) for 3 days at 37° C. Half of the medium was then exchanged by fresh TCM supplemented with 80 U/ml IL-2 and incubating was continued for 4 days at 37° C. This stimulation cycle was performed for a total of three times. For the pMHC multimer readout using 8 different pMHC molecules per condition, a twodimensional combinatorial coding approach was used as previously described (Andersen et al., 2012) with minor modifications encompassing coupling to 5 different fluorochromes. Finally, multimeric analyses were performed by staining the cells with Live/dead near IR dye (Invitrogen, Karlsruhe, Germany), CD8-FITC antibody clone SK1 (BD, Heidelberg, Germany) and fluorescent pMHC multimers. For analysis, a BD LSRII SORP cytometer equipped with appropriate lasers and filters was used. Peptide specific cells were calculated as percentage of total CD8+ cells. Evaluation of multimeric analysis was done using the FlowJo software (Tree Star, Oregon, USA). In vitro priming of specific multimer+ CD8+ lymphocytes was detected by comparing to negative control stimulations.

For assay [2], the system named is HLA-A*24. Briefly: MHC binding assay (UV-ligand exchange, beta2m ELISA), HLA-A*24. The conditions noted are these: MHC class I binding score, peptide exchange yield. Details: species or system human. The source says:
Candidate peptides for T cell based therapies according to the present invention were further tested for their MHC binding capacity (affinity). The individual peptide-MHC complexes were produced by UV-ligand exchange, where a UV-sensitive peptide is cleaved upon UV-irradiation, and exchanged with the peptide of interest as analyzed. Only peptide candidates that can effectively bind and stabilize the peptide-receptive MHC molecules prevent dissociation of the MHC complexes. To determine the yield of the exchange reaction, an ELISA was performed based on the detection of the light chain ([…] of stabilized MHC complexes. The assay was performed as generally described in Rodenko et al. (Rodenko et al., 2006).
96 well MAXISorp plates (NUNC) were coated over night with 2 ug/ml streptavidin in PBS at room temperature, washed 4× and blocked for 1 h at 37° C. in 2% BSA containing blocking buffer. Refolded HLA-A*02:01/MLA-001 monomers served as standards, covering the range of 15-500 ng/ml. Peptide-MHC monomers of the UV-exchange reaction were diluted 100 fold in blocking buffer. Samples were incubated for 1 h at 37° C., washed four times, incubated with 2 ug/ml HRP conjugated anti-β2m for 1 h at 37° C., washed again and detected with TMB solution that is stopped with […]. Absorption was measured at 450 nm. Candidate peptides that show a high exchange yield (preferably higher than 50%, most preferred higher than 75%) are generally preferred for a generation and production of antibodies or fragments thereof, and/or T cell receptors or fragments thereof, as they show sufficient avidity to the MHC molecules and prevent dissociation of the MHC complexes.
(An ELISA detects its analyte on a solid surface through an enzyme-linked reagent.)

With “141 (FLDKVLVAA; listed as Homo sapiens) [compound 141]”, the “Wells positive [%]” value in assay [1] is “+ (<20% = +)”. On to “297 (PFLQASPHF; listed as Homo sapiens) [compound 297]”, for which the “Wells (in vitro immunogenicity of HLA class I peptides)” value in assay [1] is “++ (20%-49% = ++)”. On to “35 (FLLPFSTVYL; listed as Homo sapiens) [compound 35]”, for which, in assay [1], the “Wells positive [%]” value is given as “+ (<20% = +)”. Consider “202 (VYWDSAGAAHF; listed as Homo sapiens) [compound 202]”, for which, in assay [2], the Peptide exchange entry is on record as “++++ (>=75% = ++++)”.

As for “295 (YYPGVILGF; listed as Homo sapiens) [compound 295]”, the “Wells (in vitro immunogenicity of HLA class I peptides)” value in assay [1] is on record as “++ (20%-49% = ++)”.

For “90 (FLQDLEQRL; listed as Homo sapiens) [compound 90]”, in assay [1], the “Wells positive [%]” value is “+ (<20% = +)”. With “193 (RFHPTPLLL; listed as Homo sapiens) [compound 193]”, the Peptide exchange result in assay [2] was “++++ (>=75% = ++++)”.

In the case of “23 (SLFSDEFKV; listed as Homo sapiens) [compound 23]”, in assay [1], the “Wells positive [%]” value was “++++ (>=70% = ++++)”.

As to “293 (FLVDGSWSI; listed as Homo sapiens) [compound 293]”, the “Wells (in vitro immunogenicity of HLA class I peptides)” value in assay [1] is “+ (<20% = +)”.

With “289 (KYPVEWAKF; listed as Homo sapiens) [compound 289]”, the Peptide exchange result in assay [2] is reported as “++++ (>=75% = ++++)”.

“196 (LYIDRPLPYL; listed as Homo sapiens) [compound 196]”: the “Wells positive [%]” value in assay [1] is recorded as “++++ (>=70% = ++++)”. Turning to “267 (KYMVYPQTF; listed as Homo sapiens) [compound 267]”, in assay [2], the Peptide exchange entry is listed as “++++ (>=75% = ++++)”. Still for that read-out and setting: the entry for “192 (SYALLTYMI; listed as Homo sapiens) [compound 192]” is “++++ (>=75% = ++++)”; for “175 (YYEVHKELF; listed as Homo sapiens) [compound 175]” it is “++++ (>=75% = ++++)”; for “276 (VYGFQWRHF; listed as Homo sapiens) [compound 276]” it is “++++ (>=75% = ++++)”. Take “29 (YLLDPSITL; listed as Homo sapiens) [compound 29]”: the “Wells positive [%]” value in assay [1] is “+ (<20% = +)”. On to “290 (KIVDFSYSV; listed as Homo sapiens) [compound 290]”, for which, in assay [1], the “Wells (in vitro immunogenicity of HLA class I peptides)” value is recorded as “++ (20%-49% = ++)”.

For the substance “179 (MYDSYWRQF; listed as Homo sapiens) [compound 179]”, the Peptide exchange result in assay [2] is “++++ (>=75% = ++++)”. Take “296 (TYVDSSHTI; listed as Homo sapiens) [compound 296]”: the “Wells (in vitro immunogenicity of HLA class I peptides)” value in assay [1] was “+ (<20% = +)”. For “172 (TYTTVPRVAF; listed as Homo sapiens) [compound 172]”, the Peptide exchange entry in assay [2] is “++++ (>=75% = ++++)”.

In the case of “291 (KLDETGNSL; listed as Homo sapiens) [compound 291]”, the “Wells (in vitro immunogenicity of HLA class I peptides)” value in assay [1] is reported as “+ (<20% = +)”. Take “168 (KYQDILETI; listed as Homo sapiens) [compound 168]”: the Peptide exchange entry in assay [2] is reported as “++++ (>=75% = ++++)”. Same read-out and setting: as for “280 (RYPDNLKHLYL; listed as Homo sapiens) [compound 280]”, the entry is “++++ (>=75% = ++++)”; as for “277 (VYQGHTALL; listed as Homo sapiens) [compound 277]”, “++++ (>=75% = ++++)”.

For the substance “184 (VFQNFPLLF; listed as Homo sapiens) [compound 184]”, in assay [2], the Peptide exchange result was “++++ (>=75% = ++++)”. As for “166 (YYVESGKLF; listed as Homo sapiens) [compound 166]”, the Peptide exchange result in assay [2] was “++++ (>=75% = ++++)”. Consider “274 (AYLHSHALI; listed as Homo sapiens) [compound 274]”, for which, in assay [2], the Peptide exchange result is listed as “++++ (>=75% = ++++)”. Same read-out and setting: as for “211 (YYLEVGKTLI; listed as Homo sapiens) [compound 211]”, the entry is “++++ (>=75% = ++++)”. Still for that read-out and setting: as for “195 (TYSVSFPMF; listed as Homo sapiens) [compound 195]”, the entry is “++++ (>=75% = ++++)”; as for “271 (LYHDIFSRL; listed as Homo sapiens) [compound 271]”, “++++ (>=75% = ++++)”; as for “160 (VYTLDIPVL; listed as Homo sapiens) [compound 160]”, “++++ (>=75% = ++++)”. Same read-out and setting: as for “173 (IYSWILDHF; listed as Homo sapiens) [compound 173]”, the entry is “++++ (>=75% = ++++)”; as for “187 (TYLRDQHFL; listed as Homo sapiens) [compound 187]”, “++++ (>=75% = ++++)”. Regarding “161 (IYLVSIPEL; listed as Homo sapiens) [compound 161]”, in assay [2], the Peptide exchange entry is on record as “++++ (>=75% = ++++)”. Still for that read-out and setting: the entry for “181 (LYLDIINLF; listed as Homo sapiens) [compound 181]” is “++++ (>=75% = ++++)”; for “177 (VYPWLGALL; listed as Homo sapiens) [compound 177]” it is “++++ (>=75% = ++++)”.

In the case of “217 (FFPPTRQMGLLF; listed as Homo sapiens) [compound 217]”, in assay [2], the Peptide exchange result is on record as “++++ (>=75% = ++++)”. Still for that read-out and setting: as for “216 (QYSSVFKSL; listed as Homo sapiens) [compound 216]”, the entry is “++++ (>=75% = ++++)”. On to “282 (KFVDSTFYL; listed as Homo sapiens) [compound 282]”, for which, in assay [2], the Peptide exchange result is “++++ (>=75% = ++++)”. For “278 (RYISDQLFTNF; listed as Homo sapiens) [compound 278]”, the Peptide exchange result in assay [2] is given as “++++ (>=75% = ++++)”. The same measure, in the same setting: as for “272 (QYLQDAYSF; listed as Homo sapiens) [compound 272]”, the entry is “++++ (>=75% = ++++)”; as for “210 (IYTMIYRNL; listed as Homo sapiens) [compound 210]”, “++++ (>=75% = ++++)”. Still for that read-out and setting: the entry for “194 (EFGSLHLEFL; listed as Homo sapiens) [compound 194]” is “+ (<20% = +)”; for “186 (IFPQFLYQF; listed as Homo sapiens) [compound 186]” it is “++++ (>=75% = ++++)”.

For the substance “228 (KYTSWYVAL; listed as Homo sapiens) [compound 228]”, the Peptide exchange result in assay [2] is given as “++++ (>=75% = ++++)”. Same read-out and setting: the entry for “227 (IFLDYEAGTLSF; listed as Homo sapiens) [compound 227]” is “++++ (>=75% = ++++)”.
